Test results published in patent US20090280982A1, “Quinolinylmethyl Compounds” (BASF SE, priority 2006, published 2009).

How the values were obtained:
[1] = test system: Green Peach Aphid (Myzus persicae); conditions: in vivo
Description: II.2 Activity Against Green Peach Aphid (Myzus persicae)
The active compounds were formulated in 50:50 acetone:water and 100 ppm Kinetic™ surfactant.
Pepper plants in the 2nd leaf-pair stage (variety California Wonder) were infested with approximately 40 laboratory-reared aphids by placing infested leaf sections on top of the test plants. The leaf sections were removed after 24 hr. The leaves of the intact plants were dipped into gradient solutions of the test compound and allowed to dry. Test plants were maintained under fluorescent light (24 hour photoperiod) at about 25° C. and 20-40% relative humidity. Aphid mortality on the treated plants, relative to mortality on check plants, was determined after 5 days.

[2] = test system: Brown Planthopper (nilaparvata lugens); assay: Activity against brown planthopper (II.7); format: in vivo; conditions: for mortality [%] at 300 ppm: brown plant hopper (II.7)
Protocol: II.7 Activity Against Brown Planthopper (nilaparvata lugens)
The active compounds were formulated as a 20:80 acetone:water solution. Surfactant (Alkamuls EL 620) was added at the rate of 0.1% (vol/vol).
Potted rice plants of 3-4 weeks of age are sprayed with 10 ml of the test solution using air driven hand atomizer (Devillbis atomizer) at 1.7 bar. The treated plants are allowed to dry for about 1 hour and covered with Mylar cages. The plants are inoculated with 10 adults of the specie (5 male and 5 females) and kept at 25-27° C. and 50-60% humidity for 3 days. Mortality is assed after 24, 48 and 72 hours after treatment. Dead insects are usually found in the water surface. Each treatment is replicated once.

[3] = test system: Diamond Back Moth (plutella xylostella); conditions: in vivo
Protocol: II.5 Activity Against Diamond Back Moth (plutella xylostella)
The active compounds were formulated in 50:50 acetone:water and 0.1% (vol/vol) Alkamuls EL 620 surfactant. A 6 cm leaf disk of cabbage leaves was dipped in the test solution for 3 seconds and allowed to air dry in a Petri plate lined with moist filter paper. The leaf disk was inoculated with 10 third instar larvae and kept at 25-27° C. and 50-60% humidity for 3 days. Mortality was assessed after 72 h of treatment.

[4] = test system: Rice Green Leaf Hoppers (Nephotettix virescens); assay: Activity against rice green leaf hoppers (II.20); format: in vivo; conditions: at 300 ppm; after 72 hours; rice foliar spray
Protocol: II.20 Activity Against Rice Green Leaf Hoppers (Nephotettix virescens)
(§1) Leaf hopper adults used for bioassay are obtained from a colony maintained continuously under laboratory conditions. For testing purposes, the test compound is diluted in 300 ppm (wt compound:vol diluent) in a 1:1 mixture of acetone:water, plus 0.1% EL 620 surfactant.
Hopper activity is evaluated using the foliar spray technique. Potted rice plants (2-3 week old, Variety TN-1) are cleaned and dried prior to application. All plants are treated inside the fume hood using DeVilbiss atomizer at 25 psi with a spray volume of 5 ml/plant. To ensure uniform spray distribution, plants were placed in a rotating flat form inside the fume hood. Treated plants are then placed inside the holding room and allowed to dry for 2 hours. Each plant are caged using Mylar cages (4 inches diameter×19 inches in height) and inoculated with 10 adults hoppers. All test plants are held under continuous light and a temperature of about 28° C. for duration of the assay. Percent mortality is observed after 72 hours.

[5] = test system: Flea Beetle (Phylotretta striolata); assay: Activity against flea beetle (II.19); format: in vivo; conditions: at 300 ppm; after 3 days; leaf disc dip
Protocol: II.19 Activity Against Flea Beetle (Phylotretta striolata)
as §1, with “Flea bettle (Phylotretta striolata) adults” for “Leaf hopper adults”, “diluted to a concentration of” for “diluted in”, “(wt compound: vol” for “(wt compound:vol”
Activity of each compound is evaluated using a […]. Glass petri dishes (60×15 mm) lined with moist filter paper serves as test arenas. All leaf discs are dipped into treatment solution for approximately 3 seconds and allowed to dry for 2 hours. Each treated leaf disc is placed into individual petri dishes and inoculated with 10 adult beetles. Petri dishes are then covered with lids. All test arenas are held under continuous light and a temperature of about 28° C. for duration of the assay. After 3 days, percent mortality is observed.

Row | SMILES | mortality [%] at 100 ppm [1] [%] | mortality [%] at 300 ppm [1] [%] | mortality in comparison with untreated controls ([2]; at 300 ppm, rice plants sprayed, up to 72 hours) | mortality [%] at 300 ppm [2] [%] | mortality [%] at 10 ppm [1] [%] | mortality [%] at 300 ppm [3] [%] | mortality in comparison with untreated controls [4] | mortality in comparison with untreated controls [5]
1 | O=S(=O)(NCc1ccnc2ccccc12)c1ccc(-c2ccc(OC(F)(F)F)cc2)c(F)c1 [Compound B14] | 90 | 90 |  |  |  |  |  | 
2 | O=S(=O)(NCc1ccnc2ccccc12)c1ccc(-c2ccc(C(F)(F)F)cc2)c(C(F)(F)F)c1 [Compound B16] |  |  | at least 75% | 100 |  |  |  | 
3 | O=S(=O)(NCc1ccnc2ccccc12)c1ccc(-c2ccc(C(F)(F)F)cc2)c(Cl)c1 [Compound B24] | 90 | 100 |  |  | 90 | 100 |  | 
4 | O=S(=O)(NCc1ccnc2ccccc12)c1ccc(-c2ccc(C(F)(F)F)cc2Cl)cc1F [Compound B85] |  |  |  |  |  |  | at least 75% | at least 75%
5 | O=S(=O)(NCc1ccnc2ccccc12)c1ccc(-c2ccc(OC(F)(F)F)cc2)cc1 [Compound C1, reference compound] | 0 | 60 |  |  |  |  |  | 
6 | O=S(=O)(NCc1ccnc2ccccc12)c1ccc(-c2ccc(C(F)(F)F)cc2)cc1 [Compound C2, reference compound] | 60 | 100 |  | 0 | 0 | 0 |  | 
